# Experimental data as given in US5631002A, “Liniment for melanin inhibitors” (Shiseido Co., Ltd., priority 1994, dated 1997).
# Tested on: melanin pigment deposition in skin after sunlight exposure
# Experiment: Whitening effect testing (hypochromic effect on sun-exposed upper arm skin of testees)
# Assay type: in vivo, human
# Conditions: applied twice daily for 4 weeks after sunlight exposure, 8 persons per group
# Experimental: (§1) 40 testees were exposed to summer sunlight for 4 hours (2 hours a day for 2 days) and the skin of an inner lateral part of their upper arm was used as the subject of the test. Beginning after 5 days from the day they were exposed to the sunlight, each sample was applied to this skin once in the morning and once in the afternoon for 4 weeks. The panel was divided into 5 groups with 8 persons in each group. Testing was conducted using the following formulations.
# The hypochromic effect after the application was evaluated based on the criteria below.
# Samples were prepared with the blend compositions described in the aforementioned test method, and the drugs listed in Table 2 were used to compare the whitening effect.
# as §1, with “From” for “from”
# Samples were prepared with the blend compositions described in the aforementioned test method, and the drugs listed in Table 4 were used to compare the whitening effect.
# Samples were prepared with the blend compositions described in the aforementioned test method, and the drugs listed in Table 6 were used to compare the whitening effect.
# as §1, with “groups 5” for “groups”
# Samples were prepared with the blend compositions described in the aforementioned test Method, and the drugs listed in Table 8 were used to compare the whitening effect.
smiles,measurement,setting,value
Oc1ccc(O)cc1 [Hydroquinone],Effect (hypochromic effect),"Table 2, Blend Ratio 1.0 wt % in lotion",Δ (Δ: Very effective or effective on 30% to less than 50% testees)
same,Effect (hypochromic effect),"Table 4, Blend Ratio 1.0 wt % in lotion",Δ (Δ: Very effective or effective on 30% to less than 50% testees)
same,Effect (hypochromic effect),"Table 6, Blend Ratio 1.0 % in lotion",Δ (Δ: Very effective or effective on 30% to less than 50% testees)
same,Effect (hypochromic effect),"Table 8, Blend Ratio (5) 1.0 in lotion",Δ (Δ: Very effective or effective on 30% to less than 50% testees)
